In patent publication US11925669B2, “Chinese herbal medicine composition having a function of reducing uric acid” (Infinitus (China) Company Ltd., priority 2013, dated 2024):
Marks after values point to notes of the source that are not given here.

Columns and labels:
[1] = test system: rat model of hyperuricemia; experiment: Reducing uric acid in the rat model of hyperuricemia (Oteracil potassium), 30 d intragastric administration; format: in vivo, SD Rat; details: for UA Reduction: day 30, calculated in comparison with Model control group
Text: Examine the effect of the Chinese herbal composition of the present invention for reducing uric acid in the rat model of hyperuricemia. Animals were assigned randomly into: Blank control group, Sample control group, Model control group, Test group, and Positive control group. Each group consisted of 10 animals. […] They were randomly assigned into 5 groups, each group consisting of 10 animals, the body weight distribution of each group of rats is similar. […] Blank control group was administrated with 17 ml/kg of distilled water intragastrically every afternoon, Sample control group was administrated with 17 ml/kg of test sample intragastrically every afternoon, Model control group was administrated with distilled water intragastrically in the afternoon, Positive control group was administrated with allopurinol intragastrically in the afternoon, and Test group was administrated with 17 ml/kg of test sample intragastrically in the afternoon. Additionally, for Model control group, Positive control group and Test group, each group was administrated with Oteracil potassium intragastrically every morning. The administration was conducted daily for 30 days. Prior to experiments, the rats were fastened for 12 h (but water was provided) and then about 1 ml of blood were taken from orbital veniplex with glass capillary tube. Sera were separated for measuring the pre-testing level of uric acid. On day 30, blood were taken in the same manner and sera were separated for measuring the serum levels of uric acid, creatinine, and urea nitrogen. Modeling principle: Rats were intragastrically administrated with Oteracil potassium, a chemical inhibitor of uricase, to inhibit the activity of uricase in the body of rats, rendering uric acid in the body of rats unable to breakdown, causing the accumulation of uric acid produced in the serum, so as to produce a rat model of hyperuricemia. Model control group: 17 ml/kg*d of distilled water was administrated intragastrically, once daily for 30 days; Test sample prevention group: 17 ml/kg*d of test sample was administrated intragastrically, once daily for 30 days; Positive control group: 17 ml/kg*d of positive control allopurinolis administrated intragastrically, once daily for 30 days. Observation of Body weight: The growing condition of animals were observed by weighing prior to administration and on Day 30 of administration. Blood were taken prior to administration and on Day 30 of administration to measure uric acid, creatinine, urea nitrogen, to calculate the changing rate of uric acid level in serum. The changing rate of uric acid in serum=(uric acid value in serum after experiment-uric acid value in serum prior to experiment)/uric acid value in serum prior to […]100% ANOVA (analysis of variance) was used. Firstly, homogeneous variance test was carried out, and F values were calculated.

[2] = test system: rat model of hyperuricemia; experiment: as above; format: in vivo, SD Rat; details: hyperuricemia model rats, X ± S
[3] = hyperuricemia model rats, intragastric once daily, day 30, X ± S

- BUN level in the sera of rats upon 30 d administration [1, 3]: 5.53 ± 0.79 mM
- General status observation (appearance, activities, excrement characters) ([1]; in comparison with Model control group, observed daily): no significant difference
SMILES: Oc1ncnc2[nH]ncc12 [allopurinol]
- 30 d weight ([1]; hyperuricemia model rats, body weight after 30 days, X ± S): 254.4 ± 23.1 g
- UA Reduction ([1]; hyperuricemia model rats): 53.4%
- UA Reduction ([1]; hyperuricemia model rats, listed as Positive control): ↓53.4%
- UA level in the sera of rats upon 30 d administration [1, 3]: 63.20 ± 17.19** μmol/L
- Blood/serum UA level change in words ([1]; in comparison with Model control group, 30 d oral administration): significant reduction
- 10 d weight ([2]; body weight after 10 days): 185.7 ± 15.9 g
- 20 d weight ([2]; body weight after 20 days): 224.2 ± 21.8 g
